Laboratory results from ChEMBL document CHEMBL1201862, “PubChem BioAssay data set” (2004).
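These data come from cells grown in 96-well plates and exposed to compound for 48 hours at five concentrations. GI50: concentration for 50% inhibition of growth.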 The source made the active and inactive calls. Rule as the data show it: active = GI50 up to about 1.1 µM and inactive = higher.

Assays:
Assay in all cases: inhibition of tumour cell growth, NCI panel, 48 h
HCC 2998 = system: HCC 2998
IGROV-1 = system: IGROV-1
RXF 393 = system: RXF 393
NCI-H226 = system: NCI-H226
T47D = system: T47D
SNB-75 = system: SNB-75
MDA-MB-435 = system: MDA-MB-435
HOP-62 = system: HOP-62
SW-620 = system: SW-620
CCRF-CEM = system: CCRF-CEM
SF-295 = system: SF-295
MDA-MB-231 = system: MDA-MB-231
CAKI-1 = system: CAKI-1
NCI-H460 = system: NCI-H460
SF-268 = system: SF-268
M14 = system: M14
DU-145 = system: DU-145
HL-60 = system: HL-60

Compound | GI50 (HCC 2998) | GI50 (IGROV-1) | GI50 (RXF 393) | GI50 (NCI-H226) | GI50 (T47D) | GI50 (SNB-75) | GI50 (MDA-MB-435) | GI50 (HOP-62) | GI50 (SW-620) | GI50 (CCRF-CEM) | GI50 (SF-295) | GI50 (MDA-MB-231) | GI50 (CAKI-1) | GI50 (NCI-H460) | GI50 (SF-268) | GI50 (M14) | GI50 (DU-145) | GI50 (HL-60)
Cc1ccc(C)n1-n1c(-c2ccccc2)n[nH]c1=O | 87.7 µM (inactive) | > 100 µM (inactive) | > 100 µM (inactive) | > 100 µM (inactive) | > 100 µM (inactive) | > 100 µM (inactive) | 21.2 µM (inactive) | > 100 µM (inactive) | > 100 µM (inactive) | > 100 µM (inactive) | > 100 µM (inactive) | > 100 µM (inactive) | > 100 µM (inactive) | > 100 µM (inactive) | > 100 µM (inactive) | > 100 µM (inactive) | > 100 µM (inactive) | –
CCOC(=O)/C(C(=S)Nc1ccccc1)=C(/N)N1CCCC1 | > 100 µM (inactive) | > 100 µM (inactive) | 63.1 µM (inactive) | > 100 µM (inactive) | – | – | 37.9 µM (inactive) | > 100 µM (inactive) | 48.9 µM (inactive) | 46.1 µM (inactive) | > 100 µM (inactive) | 29.7 µM (inactive) | > 100 µM (inactive) | 62.2 µM (inactive) | > 100 µM (inactive) | 72.6 µM (inactive) | > 100 µM (inactive) | 49.9 µM (inactive)
c1ccc(CNc2nncc3[nH]cnc23)cc1 | > 100 µM (inactive) | > 100 µM (inactive) | – | > 100 µM (inactive) | > 100 µM (inactive) | > 100 µM (inactive) | > 100 µM (inactive) | > 100 µM (inactive) | > 100 µM (inactive) | > 100 µM (inactive) | > 100 µM (inactive) | > 100 µM (inactive) | > 100 µM (inactive) | – | – | > 100 µM (inactive) | – | > 100 µM (inactive)
C/C(=C\C(=N\NC(=N)N)c1ccccc1)c1ccccc1 | 0.26 µM (active) | 0.432 µM (active) | 1.41 µM (inactive) | 1.15 µM (inactive) | 0.12 µM (active) | 4.28 µM (inactive) | 1.24 µM (inactive) | 0.0822 µM (active) | 0.318 µM (active) | 0.208 µM (active) | 0.409 µM (active) | – | 0.149 µM (active) | 2.25 µM (inactive) | 0.459 µM (active) | 1.17 µM (inactive) | 0.406 µM (active) | –
COc1ccc(/N=N/c2c(O)ccc3ccccc23)cc1 | – | 5.47 µM (inactive) | 41.2 µM (inactive) | 17.7 µM (inactive) | – | 16.4 µM (inactive) | > 100 µM (inactive) | 13.8 µM (inactive) | 86.1 µM (inactive) | > 100 µM (inactive) | 12.9 µM (inactive) | 24.5 µM (inactive) | > 100 µM (inactive) | – | 16.1 µM (inactive) | 26.1 µM (inactive) | – | > 100 µM (inactive)
Cc1ccc2c(=O)cc(-c3cccc(F)c3)[nH]c2n1 | 0.0586 µM (active) | 0.0755 µM (active) | 0.0415 µM (active) | 0.0336 µM (active) | – | 0.0218 µM (active) | 0.0111 µM (active) | 0.0655 µM (active) | 0.0251 µM (active) | 0.0446 µM (active) | 0.0321 µM (active) | 0.0845 µM (active) | 0.0498 µM (active) | 0.0356 µM (active) | 0.0678 µM (active) | 0.0361 µM (active) | 0.0504 µM (active) | 0.0212 µM (active)
C/C(=N\Nc1ccc([N+](=O)[O-])cc1[N+](=O)[O-])c1ccc2ccccc2n1 | – | 28.1 µM (inactive) | > 100 µM (inactive) | 88.1 µM (inactive) | > 100 µM (inactive) | 81.1 µM (inactive) | > 100 µM (inactive) | – | > 100 µM (inactive) | – | 52.6 µM (inactive) | 49.3 µM (inactive) | 58.9 µM (inactive) | 33 µM (inactive) | 61 µM (inactive) | > 100 µM (inactive) | > 100 µM (inactive) | –
CC(C)(C)C1CCC2c3c([nH]c4ccccc34)C3C(=O)N(c4cc(Cl)ccc4Cl)C(=O)C3C2C1 (stereo not given) | > 100 µM (inactive) | > 100 µM (inactive) | > 100 µM (inactive) | > 100 µM (inactive) | – | – | > 100 µM (inactive) | > 100 µM (inactive) | 5.85 µM (inactive) | > 100 µM (inactive) | > 100 µM (inactive) | 25.9 µM (inactive) | > 100 µM (inactive) | > 100 µM (inactive) | – | > 100 µM (inactive) | > 100 µM (inactive) | > 10 µM (inactive)
N#C/C(=C\NC(=S)Nc1ccc(S(=O)(=O)Nc2ccccn2)cc1)C(N)=O | – | > 100 µM (inactive) | > 100 µM (inactive) | > 100 µM (inactive) | – | 61.8 µM (inactive) | > 100 µM (inactive) | > 100 µM (inactive) | > 100 µM (inactive) | 42.2 µM (inactive) | > 100 µM (inactive) | > 100 µM (inactive) | > 100 µM (inactive) | > 100 µM (inactive) | > 100 µM (inactive) | > 100 µM (inactive) | > 100 µM (inactive) | –
C=C/C(C)=C\CC1[C@](C)(O)CC[C@H]2C(C)(C)C(=O)CC[C@]12C (stereo not given in full) | – | > 100 µM (inactive) | 32.3 µM (inactive) | > 100 µM (inactive) | – | > 100 µM (inactive) | 70.5 µM (inactive) | – | > 100 µM (inactive) | 46.6 µM (inactive) | 81.7 µM (inactive) | > 100 µM (inactive) | > 100 µM (inactive) | 50.6 µM (inactive) | > 100 µM (inactive) | 39.4 µM (inactive) | > 100 µM (inactive) | 12.1 µM (inactive)
COC(=O)C1(C(=O)OC)CC(=O)c2c(OC(=O)c3cccc(OC)c3C#N)ccc(OC(=O)c3cccc(OC)c3C#N)c2C1 | > 100 µM (inactive) | > 100 µM (inactive) | > 100 µM (inactive) | > 100 µM (inactive) | – | > 100 µM (inactive) | > 100 µM (inactive) | > 100 µM (inactive) | > 100 µM (inactive) | > 100 µM (inactive) | > 100 µM (inactive) | > 100 µM (inactive) | > 100 µM (inactive) | > 100 µM (inactive) | > 100 µM (inactive) | > 100 µM (inactive) | > 100 µM (inactive) | > 100 µM (inactive)
CCC1C(c2cccc(OC)c2O)c2cc3c(cc2OC1N1CCCC1)OCO3 (stereo not given) | 10 µM (inactive) | 14.9 µM (inactive) | – | – | 16.2 µM (inactive) | 17.7 µM (inactive) | 3.85 µM (inactive) | 18.4 µM (inactive) | 12.2 µM (inactive) | 12.6 µM (inactive) | 16.8 µM (inactive) | – | – | 20.2 µM (inactive) | 16.7 µM (inactive) | 6.43 µM (inactive) | > 10 µM (inactive) | –
CCC(C)C(NC(=O)c1cccc2c(=O)c3ccccc3[nH]c12)C(=O)O (stereo not given) | – | 96.8 µM (inactive) | – | > 100 µM (inactive) | – | 78.7 µM (inactive) | > 100 µM (inactive) | > 100 µM (inactive) | > 100 µM (inactive) | 64 µM (inactive) | 83.4 µM (inactive) | > 100 µM (inactive) | – | – | 87.5 µM (inactive) | > 100 µM (inactive) | > 100 µM (inactive) | –
